In patent publication US11993587B2, “Substituted pyrazolo-pyrazines and their use as GluN2B receptor modulators” (JANSSEN PHARMACEUTICA NV, priority 2019, dated 2024):

System: not listed separately
Assay: Liver microsomal stability (extraction ratio)
Assay type: in vitro ADME
Details: test compound 1 μM, 0.5 mg/mL liver microsomes, NADPH, 37° C.; species not stated (method: mouse, rat, and human)
Protocol: Protocol for Liver Microsomal Stability (Extraction Ratio)
Liver Microsomal Stability. Microsomal stability studies (Chrovian et al, “1H-Pyrrolo[3,2-b]pyridine GluN2B-Selective Negative Allosteric Modulators”. ACS Med Chem Lett. 2019 Jan. 10; 10(3):261-266) were conducted on a Biomek® FX Robotic Liquid Handling Workstation (Beckman Coulter, Brea, CA), which consists of a 96-channel pipette head, a 12-position workstation deck, and a plate incubator. Test compounds (1 μM) were spiked in a reaction mix consisting of 100 mM potassium phosphate buffer (pH 7.4), 3 mM MgCl2, and 0.5 mg/mL liver microsomes from mouse, rat, and human (BD Gentest). The reaction was brought to 37° C. and initiated by adding NADPH to a final concentration of 1 mM. After mixing on the plate deck, 50 μL aliquots were excised from the reaction plate at 0, 5, 10, 20, 40, and 60 min and quenched with four volumes of acetonitrile spiked with […] of the internal standard phenytoin. Quenched plates were centrifuged at 5700 rpm for 10 min at 4° C., and supernatant was diluted 1:3 in water before LC/MS/MS analysis. The compound half-lives were derived from plots of the ln of percent remaining compound over time to determine the intrinsic clearance. The predicted hepatic clearance was derived from the intrinsic clearance value using equations from the well-stirred model (Current Drug Metabolism, 2008, 9, 940-951), where no correction was made plasma protein binding and the blood to plasma concentration ratio was assumed to be one. The extraction ratio (ER) was calculated by dividing the predicted hepatic clearance by species blood flow (Q), where Q is 90, 55, and 21.7 mL/min/kg for mouse, rat and human, respectively

Compound | Extraction Ratio @ 1 μM
CN(C)C(=O)Cn1ncc2ncc(-c3ccc(Cl)c(C(F)F)c3)nc21 [Example 12, 2-[6-[4-Chloro-3-(difluoromethyl)phenyl]pyrazolo[3,4-b]pyrazin-1-yl]-N,N-dimethyl-acetamide] | 0.54
CN(C)C(=O)Cn1ncc2ncc(-c3ccc(F)c(C(F)F)c3)nc21 [Example 10, 2-[6-[3-(Difluoromethyl)-4-fluoro-phenyl]pyrazolo[3,4-b]pyrazin-1-yl]-N,N-dimethyl-acetamide] | 0.41
O=C(Cn1nc(F)c2ncc(-c3ccc(F)c(C(F)F)c3)nc21)N1CCC1 [Example 25, 1-(Azetidin-1-yl)-2-[6-[3-(difluoromethyl)-4-fluoro-phenyl]-3-fluoro-pyrazolo[3,4-b]pyrazin-1-yl]ethanone] | 0.41
O=C(Cn1ncc2ncc(-c3ccc(F)c(OC(F)F)c3)nc21)N1CC(F)C1 [Example 37, 2-[6-[3-(Difluoromethoxy)-4-fluoro-phenyl]pyrazolo[3,4-b]pyrazin-1-yl]-1-(3-fluoroazetidin-1-yl)ethanone] | 0.46
O=C(Cn1ncc2ncc(-c3ccc(F)c(OC(F)F)c3)nc21)N1CCC1 [Example 28, 1-(Azetidin-1-yl)-2-[6-[3-(difluoromethoxy)-4-fluoro-phenyl]pyrazolo[3,4-b]pyrazin-1-yl]ethanone] | 0.45

Target: T1, human GluN1/GluN2B NMDA receptors (Homo sapiens, UniProt Q13224)
T1 construct: expressed in transfected cells
T1 sequence (Q13224 27-1484, other chains not shown): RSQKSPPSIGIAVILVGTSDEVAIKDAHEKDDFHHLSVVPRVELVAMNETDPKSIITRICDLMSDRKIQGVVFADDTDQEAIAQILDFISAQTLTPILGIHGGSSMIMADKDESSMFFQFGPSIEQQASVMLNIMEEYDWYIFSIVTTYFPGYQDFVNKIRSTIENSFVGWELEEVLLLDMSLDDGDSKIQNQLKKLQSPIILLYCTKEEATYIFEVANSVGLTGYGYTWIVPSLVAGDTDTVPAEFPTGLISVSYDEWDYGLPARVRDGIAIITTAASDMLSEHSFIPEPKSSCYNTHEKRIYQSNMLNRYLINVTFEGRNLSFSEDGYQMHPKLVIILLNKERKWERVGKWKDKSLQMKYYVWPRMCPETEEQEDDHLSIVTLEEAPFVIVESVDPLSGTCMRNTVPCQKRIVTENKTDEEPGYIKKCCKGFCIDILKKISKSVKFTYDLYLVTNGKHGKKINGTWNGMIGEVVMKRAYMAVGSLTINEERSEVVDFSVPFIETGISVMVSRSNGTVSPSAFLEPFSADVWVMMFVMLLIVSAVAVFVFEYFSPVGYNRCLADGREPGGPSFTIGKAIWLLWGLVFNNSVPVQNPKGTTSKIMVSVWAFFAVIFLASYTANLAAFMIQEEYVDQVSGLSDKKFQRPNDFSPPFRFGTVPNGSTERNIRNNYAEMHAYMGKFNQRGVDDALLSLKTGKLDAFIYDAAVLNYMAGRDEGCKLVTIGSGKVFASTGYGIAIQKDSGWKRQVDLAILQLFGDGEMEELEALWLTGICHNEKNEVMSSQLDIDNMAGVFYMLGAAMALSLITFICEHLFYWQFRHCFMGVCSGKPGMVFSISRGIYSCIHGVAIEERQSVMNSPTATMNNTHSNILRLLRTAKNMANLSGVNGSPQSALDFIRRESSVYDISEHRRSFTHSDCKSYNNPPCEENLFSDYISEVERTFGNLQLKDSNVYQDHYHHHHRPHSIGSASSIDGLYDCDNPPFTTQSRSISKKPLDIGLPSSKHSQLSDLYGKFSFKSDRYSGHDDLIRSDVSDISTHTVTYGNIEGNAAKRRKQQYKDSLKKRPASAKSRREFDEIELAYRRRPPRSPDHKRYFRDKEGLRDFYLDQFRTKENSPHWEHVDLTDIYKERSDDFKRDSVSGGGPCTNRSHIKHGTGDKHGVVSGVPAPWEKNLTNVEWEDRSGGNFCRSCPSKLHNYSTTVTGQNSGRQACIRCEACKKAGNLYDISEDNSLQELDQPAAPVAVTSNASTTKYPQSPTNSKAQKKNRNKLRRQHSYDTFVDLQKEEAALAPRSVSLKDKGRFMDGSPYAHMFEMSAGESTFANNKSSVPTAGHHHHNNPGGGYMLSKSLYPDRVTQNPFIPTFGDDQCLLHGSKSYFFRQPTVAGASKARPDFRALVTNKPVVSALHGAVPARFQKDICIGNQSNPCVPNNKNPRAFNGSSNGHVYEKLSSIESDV
Assay: Cell-based calcium flux (FLIPR) assay on cloned human NR1/NR2B ion channels expressed in mammalian cells
Details: standard assay, glutamate ~EC40 plus 10 μM glycine, cells expressing human GluN1/GluN2B
Protocol: Effects of Test Articles on Cloned Human NR1/NR2B Ion Channels Expressed in Mammalian Cells
NMDA receptors are ion channels that are highly permeable to Ca^2+ ions, rendering it possible to monitor NMDA receptor function using cell-based calcium flux assay. In this assay, co-agonists glutamate and glycine are added to cells heterologously expressing human GluN1/GluN2B NMDA receptors to initiate cellular Ca^2+ influx. The time course of the changes in intracellular calcium is measured using a fluorescent dye and a FLIPR (Fluorometric Imaging Plate Reader) device.
Twenty four hours before measurements, the expression of the NMDA receptors in the stable cell line is induced with Tet-On inducible system in the presence of a non-selective NMDA receptor blocker. […] After 1 h incubation at the room temperature, the dye is washed away with the assay buffer (137 mM NaCl (standard assay) or 150 mM (HTS assay), 4 mM KCl (standard assay) or 3 mM (HTS assay), 2 mM CaCl2), 0.01 mM EDTA, 10 mM HEPES and 5 mM D-glucose; pH 7.4) In the FLIPR TETRA reader, various concentrations of the test compounds are added to the cells for 5 min while fluorescence is monitored to detect potential agonist activity. […] The fluorescent signal in the presence of test compounds is quantified and normalized to the signal defined by the appropriate control wells.

Compound | IC50 [nM]
2-[6-(4-Fluoro-3-methyl-phenyl)pyrazolo[3,4-b]pyrazin-1-yl]-N,N-dimethyl-acetamide [Example 7] | 117
